Test systems include K-562 leukemia; COLO 205 colon; RXF 393 renal; EKVX NSCLC; UO-31 renal; LOX IMVI melanoma; HCT-15 colon; OVCAR-4 ovarian; SR leukemia; HL-60(TB) leukemia.
Common to all, as to assay: inhibition of tumour cell growth, NCI panel, 48 h

Each structure is given as a SMILES string. Several values for one entry are separate records, joined by “and”; a condition that tells them apart may be missing. Identical values can stand only once.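 1) Cells in 96-well plates. 2) Compound, 48 h, 5 concentrations. 3) Linear interpolation between surrounding doses. 4) Unreached endpoint = highest concentration. GI50: concentration for 50% inhibition of growth. Definition used: TGI = concentration required for complete inhibition of growth.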 Some results are limits rather than exact numbers.

Consider `COc1cc2c(c(OC)c1OC)-c1ncc3c(OC)c(OC)c(OC)cc3c1C2`, for which the GI50 with K-562 leukemia is 19.2 µM; with COLO 205 colon it was 19.9 µM; with RXF 393 renal, 25.2 µM; in the experiment on EKVX NSCLC, 32.7 µM; with UO-31 renal, 18 µM; in the experiment on LOX IMVI melanoma, 16.2 µM. The GI50 was 28.6 µM in the experiment with HCT-15 colon and 49.6 µM with OVCAR-4 ovarian. For the same compound, the TGI was 50.3 µM with K-562 leukemia; 38.2 µM in the experiment with COLO 205 colon; 83.2 µM in the experiment with RXF 393 renal; greater than 100 µM in the experiment on EKVX NSCLC; 47.2 µM with UO-31 renal; 32.3 µM in the experiment with LOX IMVI melanoma. Also, the TGI with HCT-15 colon and in the experiment on OVCAR-4 ovarian was greater than 100 µM throughout.

Consider `O=C(/C=C/C12c3ccccc3C(c3ccccc31)C1C(=O)NC(=O)C12)c1ccc(Cl)cc1Cl` (stereo not given), for which the GI50 is 2.57 µM with K-562 leukemia; 2.2 µM in the experiment on COLO 205 colon; 1.73 µM in the experiment with RXF 393 renal; 1.59 µM in the experiment on SR leukemia; 1.86 µM in the experiment with EKVX NSCLC; 1.4 µM in the experiment on UO-31 renal. The GI50 in the experiment with LOX IMVI melanoma is 1.88 µM; in the experiment on HCT-15 colon, 1.9 µM; with OVCAR-4 ovarian it was 1.86 µM. The TGI was found to be 10.9 µM in the experiment on K-562 leukemia; 4.24 µM with COLO 205 colon; 3.22 µM in the experiment on RXF 393 renal; 4.68 µM in the experiment on SR leukemia; 4.16 µM in the experiment with EKVX NSCLC; 2.71 µM in the experiment with UO-31 renal. Besides, the TGI worked out at 3.57 µM in the experiment with LOX IMVI melanoma, 4.57 µM in the experiment with HCT-15 colon and 3.82 µM with OVCAR-4 ovarian.

As for `COc1ccc(S(=O)(=O)N2CCN(C(=O)c3ccc(-c4ccccc4)cc3)CC2C(=O)NO)cc1` (stereo not given), the TGI in the experiment with COLO 205 colon is 12.5 µM and > 100 µM; with HL-60(TB) leukemia, 38.1 µM; in the experiment with EKVX NSCLC, 7.02 µM; in the experiment with UO-31 renal it was 10.4 µM and > 100 µM; with HCT-15 colon, 12.5 µM and > 100 µM; with OVCAR-4 ovarian, 12.5 µM and > 100 µM. Besides, the GI50 was 16.8 µM with HL-60(TB) leukemia; 1.61 µM in the experiment with EKVX NSCLC; 3.42 µM and 27.1 µM in the experiment on OVCAR-4 ovarian.

`COc1ccc(NC(=O)/C(=C/c2ccccc2)C(C)=O)cc1`: the TGI was greater than 100 µM in the experiment with K-562 leukemia; 35.7 µM with COLO 205 colon; 17.7 µM with HL-60(TB) leukemia; 49.4 µM in the experiment with EKVX NSCLC; 29 µM in the experiment on UO-31 renal; 27.8 µM in the experiment with LOX IMVI melanoma. Moreover, the TGI with HCT-15 colon was 40.8 µM; with OVCAR-4 ovarian it was 24.6 µM.

On to `CC(C)(C)c1cc(C(O)(C(F)(F)F)C(F)(F)F)c2c(c1)C(C(F)(F)F)(C(F)(F)F)OC(C)(C(C)(C)C)N2` (stereo not given), for which the TGI in the experiment on K-562 leukemia worked out at 12.7 µM; in the experiment on COLO 205 colon it was 4.02 µM; with RXF 393 renal, 16.2 µM; in the experiment with SR leukemia, 8.45 µM; with EKVX NSCLC, 22.4 µM; in the experiment with UO-31 renal it was 21 µM. Besides, the TGI was 14.5 µM in the experiment with HCT-15 colon and greater than 100 µM in the experiment on OVCAR-4 ovarian.

Take `Nc1ccccc1C#C/C=C\C#Cc1ccc(OCCCNC(=O)c2cc3ccccc3[nH]2)cc1`: the GI50 is 16.1 µM with K-562 leukemia; 9.12 µM in the experiment on COLO 205 colon; 7.15 µM in the experiment with RXF 393 renal; 23.3 µM with SR leukemia; 16.4 µM with EKVX NSCLC; 41.7 µM with UO-31 renal. Moreover, the results for the GI50 with LOX IMVI melanoma, with HCT-15 colon and in the experiment with OVCAR-4 ovarian were 2.77 µM, greater than 100 µM and 21.4 µM, respectively. The TGI with K-562 leukemia is greater than 100 µM; with COLO 205 colon, greater than 100 µM; in the experiment with RXF 393 renal, 22 µM; in the experiment on SR leukemia it was 99 µM; with EKVX NSCLC, 92.7 µM; in the experiment with UO-31 renal, greater than 100 µM. The TGI with LOX IMVI melanoma was 28.7 µM; in the experiment on HCT-15 colon it was greater than 100 µM; with OVCAR-4 ovarian, greater than 100 µM.

For `Cc1ccccc1NC(=O)c1cc(-c2ccc([N+](=O)[O-])cc2)nc(=S)[nH]1`, the TGI in the experiment with K-562 leukemia, with COLO 205 colon, in the experiment with RXF 393 renal, in the experiment with HL-60(TB) leukemia, in the experiment with EKVX NSCLC and in the experiment on UO-31 renal was greater than 100 µM each time. Besides, the TGI in the experiment with LOX IMVI melanoma, in the experiment on HCT-15 colon and in the experiment on OVCAR-4 ovarian was greater than 100 µM throughout.

On to `Cc1ccc(NC(=O)CCc2nc(N)nc(N)c2-c2ccccc2)cc1C`, for which the TGI in the experiment with K-562 leukemia, with COLO 205 colon, in the experiment on HL-60(TB) leukemia, with SR leukemia, in the experiment with EKVX NSCLC and in the experiment with UO-31 renal was greater than 100 µM throughout. Moreover, the TGI in the experiment with HCT-15 colon and with OVCAR-4 ovarian was greater than 100 µM each time.

Consider `S=c1snc2n1CCN2`, for which the GI50 with K-562 leukemia is greater than 100 µM; in the experiment on COLO 205 colon, 25.2 µM; in the experiment on RXF 393 renal it was greater than 100 µM; with HL-60(TB) leukemia, 48 µM; in the experiment with EKVX NSCLC, greater than 100 µM; in the experiment with UO-31 renal it was greater than 100 µM. For the same compound, the values for the GI50 in the experiment with LOX IMVI melanoma, in the experiment on HCT-15 colon and in the experiment on OVCAR-4 ovarian were 81.7 µM, greater than 100 µM and greater than 100 µM, respectively. Further, the TGI in the experiment with K-562 leukemia, in the experiment on COLO 205 colon, with RXF 393 renal, in the experiment with HL-60(TB) leukemia, in the experiment on EKVX NSCLC and in the experiment with UO-31 renal was greater than 100 µM in each case. The TGI with LOX IMVI melanoma, with HCT-15 colon and in the experiment with OVCAR-4 ovarian was greater than 100 µM throughout.

As for `CC[C@H](Nc1ncnc2nc[nH]c12)c1nc2cccc(F)c2c(=O)n1-c1ccccc1`, the GI50 in the experiment with K-562 leukemia was 30.2 µM; in the experiment on COLO 205 colon, 72.8 µM; with RXF 393 renal, 1.35 µM; in the experiment on HL-60(TB) leukemia, 4.72 µM; in the experiment on EKVX NSCLC, 41.5 µM; with UO-31 renal it was 3.5 µM. Also, the GI50 with LOX IMVI melanoma is 28 µM; in the experiment with HCT-15 colon it was 37.6 µM; in the experiment on OVCAR-4 ovarian, greater than 100 µM. Further, the TGI in the experiment on K-562 leukemia was greater than 100 µM; in the experiment with COLO 205 colon, greater than 100 µM; in the experiment on RXF 393 renal, 17.4 µM; with HL-60(TB) leukemia, 56.5 µM; in the experiment with EKVX NSCLC it was greater than 100 µM; with UO-31 renal it was greater than 68.7 µM. The TGI in the experiment on LOX IMVI melanoma, with HCT-15 colon and in the experiment with OVCAR-4 ovarian was greater than 100 µM in each case.

For the origin of these results see PubChem BioAssay (NCI).
